Assay results published in patent US20240000791A1, “Methods of Using 4-Amino-N-[4-(Methoxymethyl)Phenyl]-7-(1-Methylcyclopropyl)-6-(3-Morpholinoprop-1-YN-1-YL)-7H-Pyrrolo[2,3-D]Pyrimidine-5-Carboxamide for the Treatment of Tumors” (Helsinn Healthcare SA, priority 2020, published 2024).

How the values were obtained:
[1] = ECG, 4-week toxicology GLP study; format: in vivo, dog
Description: The effect of HM06-01/TAS0953-01 on the ECG was also investigated in the 4-week toxicology GLP study in dog as described above (and further described in Example 8) on week 1 (Day 2), week 4 (Day 23) and at the end of the 2-week recovery period. […] Whereas, on Day 23, no test item-related effects were noted on electrocardiographic parameters at 15 and 30 mg/kg BID in males. […] These electrocardiographic effects were no longer observed at the end of the 2 week recovery period. In addition, there were no abnormalities in electrocardiogram rhythm and waveforms on Day 2 and Day 23, and at the end of the recovery period.

[2] = Respiratory system, 4-week GLP study; format: in vivo, rat; conditions: 25, 50 and 90 mg/kg BID, week 4
Description: The effect of HM06-01/TAS0953-01 on the respiratory system was also investigated after repeated administration with HM06-01/TAS0953-01 at 25, 50 and 90 mg/kg BID in the 4-week GLP study in rats further described in Example 8. Each group comprised 5 animals/group/sex.

[3] = Proconvulsant and anticonvulsant effects (pentylenetetrazole)
[4] = ECG and blood pressure, 2-week toxicology GLP study; format: in vivo, dog; conditions: for mean arterial blood pressure: high dose females
Description: The effect of HM06-01/TAS0953-01 on the ECG was investigated in the 2-week toxicology GLP study in dog as described above on Day 12. […] Heart rate and ECG were also not affected at all dose levels tested. […] At +8 h, arterial blood pressure had returned to control/baseline levels. Although this decrease was not statistically significant versus control, it was consistent and noticeable enough to be considered test item related. Nevertheless, since the extent of the change was limited and present only in the high dose females, and as this decrease in blood pressure had no negative impact on the animals' health, it was considered as non-adverse.

[5] = CNS symptoms and neurotoxicity (Fluoro-Jade C, ATF3) in dog toxicity studies; format: in vivo
Description: In order to evaluate the potential neurotoxic effect of HM06-01, Fluoro-Jade C staining was performed on nine different brain areas (i.e., frontal pole, optic chiasm, infundibulum, mammillary bodies, base of third cranial nerve, anterior portion of pons and occipital pole section, cerebellum and medulla oblongata) of control dogs and dogs treated with 45 mg/kg BID HM06-01/TAS0953-01 (samples were taken from the 2-week toxicity study in dogs). In addition, ATF3 immunostaining was performed only on one control and one high dose dog treated with 45 mg/kg BID, in order to validate with an alternative method, the absence of any signs of neuronal degeneration or suffering.

[6] = 4-week GLP toxicity study in rat; format: in vivo; conditions: for AUC(0-t): 50 mg/kg, 50 mg/kg BID
Description: In the 4-week GLP toxicity study in rat, animals received 0, 25, 50, and 90 mg/kg BID HM06-01/TAS0953-01 by oral gavage. In the high dose of 90 mg/kg BID group, test item-related mortality was observed: 3 females were found dead or were prematurely sacrificed for ethical reasons (severe clinical signs like decreased activity, abnormal respiratory rate and erected fur) from Day 10 to Day 14. At necropsy, discolorations of the lungs were generally observed, histologically correlated with adverse moderate to marked inflammatory changes in the lungs (alveolar/perivascular inflammation, macrophages aggregates, alveolar oedema/hemorrhage). One additional female (satellite) was found dead on Day 7 before dosing. However, in absence of clinical sign and of abnormality at necropsy, the relationship with the test item administration was considered doubtful.

[7] = 4-week GLP toxicity study in dog; format: in vivo; conditions: for AUC(0-t): beagle, dog, in vivo, po, 30 mg/kg, 30 mg/kg BID
Description: In the 4-week GLP toxicity study in dog, animals received 0, 15, 30, and 45 mg/kg BID HM06-01/TAS0953-01 by oral gavage for 4 consecutive weeks followed by 2-week recovery period. In the high dose of 45 mg/kg BID group, test item-related mortality was observed: 2 males were prematurely sacrificed on Day 17 and Day 18 for ethical reasons (severe clinical signs associated with a significant body weight loss). The main cause of death was the mild to moderate multifocal subacute inflammation with alveolar or bronchioalveolar distribution, accompanied in one male with alveolar foreign body granulomas. In the other male, minimal pancreatic acinar vacuolation/apoptosis with prostatic acinar apoptosis were noted, for which the relationship with test item cannot be excluded.

[8] = test system: cell line from a patient who acquired resistance to RXDX-105 (KIF5B-RET fusion); assay: Growth inhibition, RXDX-105-resistant cell line; format: cell-based; conditions: Homo sapiens; RXDX-105-resistant, KIF5B-RET; read-out: IC50 growth inhibition

For `COCc1ccc(NC(=O)c2c(C#CCN3CCOCC3)n(C3(C)CC3)c3ncnc(N)c23)cc1` [HM06-01/TAS0953-01, 4-amino-N-(4-(methoxymethyl)phenyl)-7-(1-methylcyclopropyl)-6-(3-morpholinoprop-1-yn-1-yl)-7H-pyrrolo[2,3-d]pyrimidine-5-carboxamide], the ECG effects ([1]; Day 2, two hours after second daily dose, 15, 30 and 45 mg/kg BID) was “no effects”, the “prolongation of Fridericia and Van der Water corrected QTc interval versus control” value ([1]; Day 23, females, 15, 30 and 45 mg/kg) was “up to 8%” and the heart rate ([1]; Day 23, males, 45 mg/kg BID) was “slight increase in heart rate”. For the same molecule, the respiratory parameters [2] was “Neither toxicologically relevant effects in respiratory parameters were observed at week 4”, the proconvulsant activity ([3]; 30, 100 and 200 mg/kg oral, 1 hour prior to 25 mg/kg PTZ) was “did not demonstrate any proconvulsant activity” and the “anticonvulsant effect, total number of convulsions” value ([3]; 100 and 200 mg/kg oral, pentylenetetrazole) was “decrease in the total number of convulsions”. The QT prolongation ([4]; 15, 30 and 45 mg/kg BID, Day 12) was “No evidence of QT prolongation”, the “heart rate and ECG” value ([4]; all dose levels tested) was “not affected” and the “mean arterial blood pressure” value ([4]; 1 hour after the second daily dose, vehicle 115) was 93 mmHg. The “mean arterial blood pressure” value ([4]; 5 hours after the first daily dosing, vehicle 127) was 91 mmHg, the “neuronal degeneration (Fluoro-Jade C, ATF3)” value ([5]; 45 mg/kg BID, 2-week toxicity study, brain areas) was “no evidence of any neuronal degeneration” and the “dose at which CNS symptoms were seen” value ([5]; after the first administration in PK studies) was no less than 5 mg/kg BID. The “dose at which CNS symptoms were seen” value ([5]; after the first daily dose, routine clinical observations, 2-week and 4-week toxicity studies) was no less than 15 mg/kg BID, the test item-related mortality ([6]; 90 mg/kg BID, Day 10 to Day 14) was 3 females and the “decrease of body weight” value ([6]; 90 mg/kg BID, both sexes) was 10%. The “severely toxic dose 10 (STD 10)” value ([6]; 4-week, oral gavage) was 50 mg/kg BID, the ophthalmology ([6]; 4 weeks oral BID) was “no change in ophthalmology” and the “systemic exposure vs dose” value ([6]; 25-90 mg/kg BID) was “approximately dose proportional manner”. For the same molecule, the body weight ([6]; 25 and 50 mg/kg BID) was “no effect on body weight”, the systemic accumulation ([6]; Day 28) was “no systemic accumulation” and the “clinical chemistry, AST and ALT” value ([6]; both sexes) was “dose-dependent increase in AST and ALT”. For the same molecule, the “hematology, reticulocytes” value ([6]; both sexes) was “dose-dependent increase in reticulocytes”, the urine protein concentration ([6]; both sexes) was “dose-dependent increase in urine protein concentration” and the microscopic findings ([6]; end of dosing period) was “inflammatory microscopic findings were noted in the lungs”. The AUC(0-t) ([6]; female, rat, in vivo, po, Day 1, females) was 37200 ng·h/mL, the AUC(0-t) ([6]; female, rat, in vivo, po, Day 28, females) was 74300 ng·h/mL and the AUC(0-t) ([6]; male, rat, in vivo, po, Day 1, males) was 50300 ng·h/mL. For the same molecule, the AUC(0-t) ([6]; male, rat, in vivo, po, Day 28, males) was 73000 ng·h/mL, the Tmax ([6]; rat, in vivo, po, Day 1, after the first daily dose) was 7 h and the Tmax ([6]; rat, in vivo, po, Day 28, after the first daily dose) was 1 h. It also gave a half-life ([6]; rat, in vivo, po, after the second daily dose, when estimable) of 2.03 to 3.67 h, a test item-related mortality ([7]; 45 mg/kg BID, Day 17 and Day 18) of 2 males and a body weight loss ([7]; 45 mg/kg BID, Male No. 642, day 17) of −12%. For the same molecule, the body weight loss ([7]; 45 mg/kg BID, Male No. 644, day 15) was −25%, the “highest non severely toxic dose (HNSTD)” value ([7]; 4-week, oral gavage) was 30 mg/kg BID and the “ophthalmology, urinalysis, coagulation, clinical chemistry” value ([7]; 4 weeks oral BID) was “no change in ophthalmology, urinalysis and on coagulation and clinical chemistry parameters”. The “hematology, total white blood cell count” value ([7]; both sexes) was “increase in total white blood cell count”, the microscopic findings ([7]; end of dosing period) was “inflammatory microscopic findings in the lungs” and the AUC(0-t) ([7]; female, Day 1, females) was 29200 ng·h/mL. The AUC(0-t) ([7]; female, Day 28, females) was 29100 ng·h/mL, the “dose at which test item-related clinical signs were noted” value ([7]; from Day 1) was no less than 15 mg/kg BID and the body weight ([7]; low dose) was “no effect on body weight”. It also gave an AUC(0-t) ([7]; male, Day 1, males) of 21400 ng·h/mL and an AUC(0-t) ([7]; male, Day 28, males) of 22300 ng·h/mL.
`COc1cc2nccc(Oc3ccc(NC(=O)C4(C(=O)Nc5ccc(F)cc5)CC4)cc3)c2cc1OC` [cabozantinib, reference compound] gave an IC50 [8] of 340 nM.
